Assay results: patent US20250313552A1, “NICOTINATE ESTERS AND THERAPEUTIC METHODS OF USE THEREOF” (New Frontier Bio, Inc., priority 2024, published 2025)

Tested on: Keratinocytes
Assay: NAD assay in keratinocytes (NAD+ increase)
Assay type: cell-based
Details: 3 hours incubation with compound, normalized NAD, ratio vs PBS control
Method: Keratinocytes were plated in 12-well tissue culture plates at a density of 200,000 cells per well. The wells contained 0.75 mL DMEM growth medium with 2% HI FBS and cells were incubated overnight at 37° C. at 5% CO2. The following day, cells were dosed with the desired concentration of each compound and incubated for 3 hours. Following the incubation period, cell monolayers were washed with 200 μL of PBS. Cells were then allowed to lift using 0.25% trypsin for 15 minutes. After lifting, cells were collected into a sterile 1.5 mL centrifuge tube containing 400 μL of DMEM with 2% HI FBS. The cell lysates then centrifuged at 500×g for 5 minutes. Following this, the supernatant was aspirated off of the cell pellet and cells were washed again in 200 μL of PBS and centrifuged at 500×g for 5 minutes. PBS was aspirated off of the cell pellet and 400 μL of cold extraction buffer was added. Each centrifuge tube was then vortexed for 10 seconds. The resulting samples were centrifuged at 13,000×g for 10 minutes at 4° C. to remove insoluble material. After centrifuging, 50 μL of each sample was used to determine in duplicates the total protein concentration by a BCA protein assay kit. The remaining samples were then deproteinized by centrifuging and filtering them through a 10 kDa cut-off spin filter at 13,000xg for 10 minutes at 4° C. Following deproteinization, the samples were loaded into a 96 well plate in duplicates. The amount loaded was dependent on their protein concentration to ensure a uniform protein content for each sample. The final volume in the well was brought up to 50 μL using the cell extraction buffer. 50 μL of each standard was added to the appropriate wells. 98 μL of cycling buffer and 2 μL of NAD cycling enzyme were added to each well and the wells were incubated at room temperature for 5 minutes. 10 μL of developer was added to each well and the plate was incubated at room temperature for one hour. The reaction was stopped by adding 10 μL of stop solution to each well. The absorbance of each well was measured at 450 nm using a plate reader. A standard curve was plotted and normalized NAD values were determined.

Structure (SMILES)	NAD+ increase ratio compared to PBS control
CCCCCCCCCCCCCCCC(=O)OC[C@H](OC(=O)c1cccnc1)[C@H]1OC(=O)C(OC(=O)c2cccnc2)=C1OC(=O)c1cccnc1 [Compound 4, (R)-2-((S)-1-(nicotinoyloxy)-2-(palmitoyloxy)ethyl)-5-oxo-2,5-dihydrofuran-3,4-diyl dinicotinate]	3.04
CC(C)(COC(=O)c1cccnc1)C(OC(=O)c1cccnc1)C(=O)NCCCOC(=O)c1cccnc1 (stereo not drawn) [Compound 11, 2,2-dimethyl-4-((3-(nicotinoyloxy)propyl)amino)-4-oxobutane-1,3-diyl dinicotinate]	2.7
O=C(CCC[P+](c1ccccc1)(c1ccccc1)c1ccccc1)NCCOC(=O)c1cccnc1 [Compound 9, (4-((2-(nicotinoyloxy)ethyl)amino)-4-oxobutyl)triphenylphosphonium]	1.67
O=C1O[C@H]([C@@H](O)COC(=O)c2cccnc2)C(O)=C1O [Compound 6, (S)-2-((R)-3,4-dihydroxy-5-oxo-2,5-dihydrofuran-2-yl)-2-hydroxyethyl nicotinate]	0.99
CCCCCCCCCCCCCCCC(=O)OC[C@H](O)[C@H]1OC(=O)C(OC(=O)c2cccnc2)=C1OC(=O)c1cccnc1 [Compound 14, (R)-2-((S)-1-hydroxy-2-(palmitoyloxy)ethyl)-5-oxo-2,5-dihydrofuran-3,4-diyl dinicotinate]	8.33
O=C1O[C@H]([C@@H](O)COC(=O)c2cccnc2)C(O)=C1O[C@H]1O[C@H](COC(=O)c2cccnc2)[C@@H](O)[C@H](O)[C@H]1O [Compound 7, (S)-2-hydroxy-2-((R)-3-hydroxy-5-oxo-4-(((2R,3R,4S,5S,6R)-3,4,5-trihydroxy-6-((nicotinoyloxy)methyl)tetrahydro-2H-pyran-2-yl)oxy)-2,5-dihydrofuran-2-yl)ethyl nicotinate]	1.5
O=C(/C=C/C=C/c1ccc2c(c1)OCO2)NCCOC(=O)c1cccnc1 [Compound 10, 2-((2E,4E)-5-(benzo[d][1,3]dioxol-5-yl)penta-2,4-dienamido)ethyl nicotinate]	1.57
CCCCCCCCCCCCCCCC(=O)OC[C@@H](O)[C@@H]1OC(=O)C(OC(=O)c2cccnc2)=C1OC(=O)c1cccnc1 [Compound 1, (S)-2-((R)-1-hydroxy-2-(palmitoyloxy)ethyl)-5-oxo-2,5-dihydrofuran-3,4-diyl dinicotinate]	8.19
CCCCCCCCCCCCCCCC(=O)OC[C@@H](O)[C@@H]1OC(=O)C(OC(=O)c2cccnc2)=C1O [Compound 2, (S)-4-hydroxy-5-((R)-1-hydroxy-2-(palmitoyloxy)ethyl)-2-oxo-2,5-dihydrofuran-3-yl nicotinate]	2.53
CCCCCCCCCCCCCCCC(=O)OC[C@@H](O)[C@@H]1OC(=O)C(O)=C1OC(=O)c1cccnc1 [Compound 3, (S)-4-hydroxy-2-((R)-1-hydroxy-2-(palmitoyloxy)ethyl)-5-oxo-2,5-dihydrofuran-3-yl nicotinate]	2.77
O=C1O[C@H]([C@@H](O)COC(=O)c2cccnc2)C(O)=C1O[C@H]1O[C@H](CO)[C@@H](O)[C@H](O)[C@H]1O [Compound 8, (S)-2-hydroxy-2-((R)-3-hydroxy-5-oxo-4-(((2R,3R,4S,5S,6R)-3,4,5-trihydroxy-6-(hydroxymethyl)tetrahydro-2H-pyran-2-yl)oxy)-2,5-dihydrofuran-2-yl)ethyl nicotinate]	1.5
O=C(OCc1cc(=O)c(OC(=O)c2cccnc2)co1)c1cccnc1 [Compound 5, (5-(nicotinoyloxy)-4-oxo-4H-pyran-2-yl)methyl nicotinate]	1.51
NC(=O)c1ccc[n+]([C@@H]2O[C@H](COC(=O)c3cccnc3)[C@@H](OC(=O)c3cccnc3)[C@H]2OC(=O)c2cccnc2)c1 [Compound 13, 1-((2R,3R,4R,5R)-3,4-bis(nicotinoyloxy)-5 ((nicotinoyloxy)methyl)tetrahydrofuran-2-yl)-3-carbamoylpyridin-1-ium]	1.67
NC(=O)c1ccc[n+]([C@@H]2O[C@H](COC(=O)CCCCC3CCSS3)[C@@H](OC(=O)CCCCC3CCSS3)[C@H]2OC(=O)CCCCC2CCSS2)c1 (stereo partly drawn) [Compound 12, 1-((2R,3R,4R,5R)-3,4-bis((5-(1,2-dithiolan-3-yl)pentanoyl)oxy)-5-(((5-(1,2-dithiolan-3-yl)pentanoyl)oxy)methyl)tetrahydrofuran-2-yl)-3-carbamoylpyridin-1-ium]	1.16
CCCCCCCCCCCCCCCC(=O)OC[C@@H](O)[C@H]1OC(=O)C(OC(=O)c2cccnc2)=C1OC(=O)c1cccnc1 [Compound 15, (R)-2-((R)-1-hydroxy-2-(palmitoyloxy)ethyl)-5-oxo-2,5-dihydrofuran-3,4-diyl dinicotinate]	1.84
